The values below come from PubChem BioAssay (NCI).

Structures are written as SMILES. Values joined by “and” are separate entries in the source; they are usually repeats but may differ in a detail not shown here. Equal entries are not always repeated.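 Assay format: 96-well plates, 48-hour exposure. Here, GI50 denotes the concentration required for 50% inhibition of growth. TGI is the concentration that stops growth completely.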

Some test systems named below: PC-3 prostate; HOP-18 NSCLC; MDA-MB-435; LXFL 529 NSCLC; DMS 273 small cell lung; DLD-1 colon; XF 498 CNS; KM20L2 colon.
What all share (test): inhibition of tumour cell growth, NCI panel, 48 h

As for `COC1C(C)OC(OC2CC(C)(O)Cc3cc4c(c(O)c32)C(=O)c2c(O)cc3c(c2C4=O)OC2OC3(C)C(O)C(N(C)C)C2O)C(OC)C1(C)OC` (stereo not drawn), the TGI is 3.75 nM in the assay on PC-3 prostate; 919 nM and 3110 nM in the assay on HOP-18 NSCLC; 3.06 nM in the assay on MDA-MB-435; 2840 nM in the assay on LXFL 529 NSCLC; 557 nM and 137 nM in the assay on DMS 273 small cell lung; 5120 nM and 3910 nM in the assay with DLD-1 colon. Besides, the TGI is 292 nM and 48.3 nM with XF 498 CNS; 571 nM and 1600 nM with KM20L2 colon. The GI50 was 157 nM in the assay on HOP-18 NSCLC; 29.8 nM in the assay on DMS 273 small cell lung; 183 nM in the assay on DLD-1 colon; 30 nM in the assay on XF 498 CNS; 65.1 nM in the assay on KM20L2 colon.
